The nature of this data set: Solubility of etioporphyrin-I in chloroform. In kind it is physicochemical. The conditions noted are these: solvent chloroform. The procedure: In addition to the problems associated with the isolation of the dipyrromethenes, another difficulty in the syntheses of etioporphyrin I is the work up and purification procedures for isolating etioporphyrin-I. The coupling reaction of the dipyrromethenes (see Scheme 3, (5) and (6)) is carried out in refluxing formic acid. Generally, this gives a tarry, black reaction mixture that yield about 20-35% of etioporphyrin-I after extensive chromatography. On small scales (1-40 g of dipyrromethenes), dissolution of the tarry reaction mixture in chloroform, followed by neutralization and chromatography on large amounts of silica affords the desired porphyrin. […] During this process it is not uncommon for etioporphyrin-I to precipitate from solution onto the silica gel, making column chromatography (even on small scale (10 g)) difficult. Clearly, such a process is not feasible economically on large scale.

etioporphyrin-I yielded a solubility in chloroform of less than 10000 µg/mL.

Source of the values: patent US20230167124A1, “Methods for the Production of Nickel (II) Etioporphyrin-I” (Adgero Biopharmaceuticals Holdings, Inc., priority 2020, published 2023).
